Assay results published in patent US20080031839A1, “Agent For Prermanent Hair Processing” (Showa Denko K.K., priority 2004, published 2008).
Where a name gives a salt, the structure may show the parent alone.

Experiment: Permanent wave processing of hair, wave efficiency by Kilby method
Conditions: for Wave efficiency: compound at 2% in terms of reducing power of thioglycolic acid, soaked at 35° C. for 20 minutes, bromate second liquid 25° C. 10 minutes
Description: A permanent wave first liquid was prepared as described below using the alkoxyalkyl mercaptocarboxylate (TGE-1) obtained in Synthetic Example 1. A permanent wave second liquid was prepared as described below. Hair was permanent waved with these liquids, and the wave efficiency was obtained.
[…] The mixing was performed such that the total amount would be 100 g. A permanent wave first liquid was thus prepared.
The agent contained TGE-1 in an amount of 2% in terms of reducing power of thioglycolic acid.
5 g of sodium bromate and 95 g of purified water were mixed together to give a permanent wave second liquid.
The wave efficiency was evaluated by a Kilby method as described in Fragrance Journal Extra Edition (1984, No. 5, P. 442). A liquid containing cysteamine hydrochloride was used as the comparative agent.
Chinese hair (approximately 20 cm long) was fixed to a Kilby apparatus and was soaked in the permanent wave first liquid heated to 35° C. over a period of 20 minutes. Thereafter, the hair was lightly towel dried such that the first liquid would not drip. The hair was then given the bromate-based permanent wave second liquid, and was allowed to stand at 25° C. for 10 minutes. After the completion of the treatment with the second liquid, the hair was rinsed with running water and was removed from the Kilby apparatus, followed by drying. The dried hair was measured and the wave efficiency was determined from the following equation. Wave efficiency(%)=100−[100×(B−A)]÷(C−A) wherein:
A: Distance between the first and sixth rods of the Kilby apparatus (actual measurement value between the central points of the rods)
B: Length of six waves of curled hair
C: Length of straightened six waves of curled hair
A permanent wave first liquid was prepared as described in Example 1, except that TGE-1 was replaced with the alkoxyalkyl mercaptocarboxylate indicated in Table 1. The permanent wave first liquid contained the alkoxyalkyl mercaptocarboxylate in an amount of 2% in terms of reducing power of thioglycolic acid.
Hair was permanent waved and the wave efficiency was obtained by the procedure of Example 1 with use of the permanent wave first liquid prepared as above and the permanent wave second liquid used in Example 1.
A permanent wave first liquid was prepared as described in Example 1, except that TGE-1 was replaced with the cysteamine hydrochloride indicated in Table 1. The permanent wave first liquid contained the […] in an amount of 2% in terms of reducing power of thioglycolic acid.

Row | Molecule | Wave efficiency (pH 6 first liquid) [%] | Wave efficiency (pH 7.5 first liquid) [%] | Wave efficiency (pH 9 first liquid) [%] | Behaviour of wave efficiency across pH range (neutral to acidic versus alkaline pH, summary of Table 1)
1 | 2-butoxyethyl thiolactate [TNE-3] | 73 | 73 | 72 | –
2 | NCCS [Cysteamine hydrochloride, cysteamine hydrochloride, reference compound] | 52 | 65 | 73 | drastic deterioration of wave efficiency with the pH lowering to a neutral to acidic region
3 | CCOCCOC(=O)CS [TGE-2, 2-ethoxyethyl thioglycolate] | 84 | 87 | 86 | –
4 | CCCCOCCOC(=O)CS [TGE-3, 2-butoxyethyl thioglycolate] | 79 | 79 | 82 | –
5 | CCOCCOCCOC(=O)CS [TGE-5, 5-ethoxy-3-oxapentyl thioglycolate] | 70 | 70 | 71 | –
6 | COCCOCCOCCOC(=O)CS [TGE-6, 8-methoxy-3,6-dioxaoctyl thioglycolate] | 63 | 67 | 65 | –
7 | COCC(C)OC(=O)CS (stereo not shown) [TGE-7, 2-methoxy-1-methylethyl thioglycolate] | 79 | 81 | 81 | –
8 | CCOCC(C)OC(=O)CS (stereo not shown) [TGE-8, 2-ethoxy-1-methylethyl thioglycolate] | 80 | 82 | 83 | –
9 | COCCOCCOCCOC(=O)CS [TGE-9, 8-methoxy-3,6-dioxaoctyl thioglycolate] | 75 | 75 | 76 | –
